Measured values as given in US10493087B2, “Sialylation-increasing therapies for diseases associated with oxidative stress” (THE UNITED STATES OF AMERICA, AS REPRESENTED BY THE …, priority 2015, dated 2019).

Columns and labels:
[1] = tested on: GNE myopathy mice; settings: cited from earlier work; for Prevention of muscle disease in GNE myopathy mice: prophylactic, Malicdan et al., Nature Med 2009
[2] = tested on: GNE myopathy mice skeletal muscle tissue; settings: cited from earlier work; for Hyposialylation of GNE myopathy mice skeletal muscle tissue: Niethamer et al., Mol Genet Metab 2012
[3] = tested on: heart tissue of GNE −/− mice; test: SNA lectin staining of heart sections (sialylation status); assay type: in vivo; settings: ~1 year old GNE −/− mice treated since age 10 weeks with 2 g/kg/day; vs untreated GNE −/− mice
Experimental: Mouse hearts or skeletal muscle (gluteus) were harvested and fixed in 4% paraformaldehyde for 48 hours at room temperature, dehydrated in 70% ethanol at 4° C., and paraffin-embedded for sectioning (Histoserv, Gaithersburg, Md.). Tissue sections (5 um) were stained with a variety of lectins, as previously described for mouse kidneys and muscle (Kakani et al., Am J Pathol 2012; 180: 1431-40; Niethamer et al., Mol Genet Metab 2012; 107: 748-55) as well as for GNE myopathy patients' muscle (Leoyklang et al., Biomarkers Med 2014; 8: 641-52). Lectin histochemistry was performed with fluorescein isothiocyanate (FITC) labeled lectins WGA and VVA from EY Laboratories (San Mateo, Calif.) and SNA from Vector Laboratories (Burlingame, Calif.). Each slide was also stained with the nuclear dye DAPI. Fluorescence imaging of multiple sections of heart per slide was performed under a Zeiss 510 META confocal laser-scanning microscope. All fluorescent images represent collapsed stacks of confocal Z-sections, imaged at 63× magnification.

[4] = tested on: GNE Myopathy myotubes; test: Cell viability assay under pro-oxidants (propidium iodide/Hoechst co-staining); assay type: cell-based, mice; settings: treated GNE Myopathy myotubes vs untreated; same concentrations of H2O2 or menadione
Experimental: (§1) Cell cultures and myotubes analysis: Myocytes from Gne^−/−hGNED176V-Tg mice and littermate controls were proliferated in DMEM containing 20% fetal bovine serum and 1% chicken embryo extracts in a 5% CO2 and induced to differentiation in a serum free medium, OPTIPRO™ SFM (Gibco), to make the cells hyposialylated. Where indicated, myotubes were treated with 5 mM NeuAc (Japan Food and Liquor Alliance) or 5 mM NAC (Sigma) for 72 h.
For the cell viability assay, myotubes were exposed to H2O2 for 24 h and to menadione for 6 h before staining. Nuclear staining with Hoechst 33342 (Thermo Scientific) and propidium iodide (PI) (Dojindo) was used for morphological assessment of apoptosis by fluorescence microscopy (Lee and Shacter, Journal of Biological Chemistry. 1999; 274:19792-19798). Minimum 200 nuclei were counted and cell viability was calculated by the exclusion of PI-stained nuclei from Hoechst 33342-stained nuclei.

[5] = tested on: GNE Myopathy myotubes; test: ROS generation under pro-oxidants (H2O2 or menadione), ΔDCF fluorescence; assay type: cell-based, mice; settings: GNE Myopathy myotubes incubated before and during exposure to H2O2 and menadione; vs untreated; p<0.01
Experimental: as §1
To evaluate the ROS generation under pro-oxidants, myotubes cultured in each condition were loaded with 5 μM DCFH-DA for 1 h and recovered in the different concentrations of H2O2 or menadione-containing medium. After 30 min incubation in dark at 37° C., the microplate containing cells with pro-oxidants were placed in a plate reader and fluorescence was captured at every 5 min until it reached a plateau. Maximum fluorescence of each well was used for analysis.

[6] = tested on: GNE Myopathy myotubes; test: Intracellular ROS (DCF fluorescence) in cultured myotubes; assay type: cell-based, mice; settings: GNE Myopathy myotubes treated with 5 mM for 72 h; mean±SEM; untreated 1113±30, littermate controls 115±15
Experimental: as §1
For the analysis of intracellular ROS, a popular fluorescence-based probe, 2′,7′-dichlorodihydrofluorescein diacetate (DCFH-DA) (Wang et al., Free Radical Biology and Medicine. 1999; 27:612-616; Halliwell and Whiteman, Br J Pharmacol. 2004; 142:231-255) was used. Cells were loaded with 5 μM DCFH-DA (Invitrogen) in PBS for an hour and recovered with phenol red-free DMEM (Gibco) for 30 min at 37° C. in a 5% CO2 incubator. Then the cells were placed in a CYTOFLUOR® Series 4000 multi-well fluorescence plate reader (PerSeptive Biosystems) with temperature maintained at 37° C. The excitation filter was set at 485 nm and the emission filter was set at 530 nm. The fluorescence from each well was captured and recorded.

Compound	Prevention of muscle disease in GNE myopathy mice [1]	Hyposialylation of GNE myopathy mice skeletal muscle tissue [2]	Sialylation status of skeletal muscle (SNA and VVA signal) ([2]; oral 1 g/kg/day for 12 weeks, gastrocnemius, adapted from Niethamer et al., 2012)	Sialylation of glycans in heart tissue (SNA lectin staining) [3]	Relative cell viability under pro-oxidants [4]	Muscle force generation in treated mice ([1]; sialic acid supplement, Malicdan et al. 2009, 2008)	ΔDCF fluorescence increments on exposure to pro-oxidants [5]	Mean DCF fluorescence (intracellular ROS generation) [6] [AFU]
CC(=O)NC1C(O)[C@H](O)C(CO)O[C@H]1O (stereo partly shown) [ManNAc, N-acetyl mannosamine]	prophylactically prevent muscle disease	rescue hyposialylation	restored the sialylation status back to the normal range	significantly increased sialylation				
CC(=O)N[C@H]1[C@H]([C@H](O)[C@H](O)CO)OC(O)(C(=O)O)C[C@@H]1O (stereo partly shown) [NeuAc, N-acetyl neuraminic acid]	prophylactically prevent muscle disease	rescue hyposialylation		significantly increased sialylation	more resistant	increased in proportion to muscle fiber diameter	significantly decreased	349±19
N[C@@H]1C(O)O[C@H](CO)[C@@H](O)[C@@H]1O (stereo partly shown) [mannosamine]		rescue hyposialylation						
sialyllactose	prophylactically prevent muscle disease							
